Test results from ChEMBL document CHEMBL3871289, “Design, synthesis and antithrombotic evaluation of novel non-peptide thrombin inhibitors” (Bioorg Med Chem, 2017).
Active and inactive are the calls of the source. The rule behind the calls is not given here.

What follows are compounds tested on Rattus norvegicus (assay: Anti-thrombotic activity in Sprague-Dawley rat venous thrombosis model assessed as reduction in thrombus weight at 5 mg/kg, ig administered once daily for 3 days measured 2 hrs post last dose).
Type: functional, organism-based

| SMILES | Activity |
| --- | --- |
| CCCCCCOC(=O)NC(=N)c1ccc(NCc2nc3cc(C(=O)N(CCC(=O)OCC)c4ccccn4)ccc3n2C)cc1 | Active |

These compounds were tested against Prothrombin (Homo sapiens, UniProt P00734) (assay: Inhibition of human thrombin assessed as reduction in release of free nitroaniline using tosyl-glycyl-prolyl-arginine-4-nitranilide acetate as substrate preincubated for 10 mins followed by substrate addition by spectrophotometer).

| IC50 | SMILES |
| --- | --- |
| 1000 nM | CC(C)(C(=O)N1CCCCC1)c1ccc2c(c1)nc1n2CCNC1Cc1ccc(C(=N)N)cc1 (stereo not drawn) |
| 1920 nM | CCOC(=O)C1(c2ccc3c(c2)nc2n3CCNC2Cc2ccc(C(=N)N)cc2)CCCC1 (stereo not drawn) |
| 456 nM | N=C(N)c1ccc(CC2NCCn3c2nc2cc(C4(C(=O)N5CCCCC5)CCC4)ccc23)cc1 (stereo not drawn) |
| 1030 nM | N=C(N)c1ccc(CC2NCCn3c2nc2cc(C4(C(=O)N5CCCCC5)CCCC4)ccc23)cc1 (stereo not drawn) |
| 147 nM | CC(C)(C(=O)N1CCCC1)c1ccc2c(c1)nc1n2CCNC1Cc1ccc(C(=N)N)cc1 (stereo not drawn) |
| 511 nM | N=C(N)c1ccc(CC2NCCn3c2nc2cc(C4(C(=O)N5CCCC5)CC4)ccc23)cc1 (stereo not drawn) |
| 1440 nM | CCOC(=O)C(C)(C)c1ccc2c(c1)nc1n2CCNC1Cc1ccc(C(=N)N)cc1 (stereo not drawn) |
| 446 nM | N=C(N)c1ccc(CC2NCCn3c2nc2cc(C4(C(=O)N5CCCC5)CCC4)ccc23)cc1 (stereo not drawn) |
| 82.8 nM | N=C(N)c1ccc(CC2NCCn3c2nc2cc(C4(C(=O)N5CCCC5)CCCC4)ccc23)cc1 (stereo not drawn) |
| 437 nM | N=C(N)c1ccc(CC2NCCn3c2nc2cc(C4(C(=O)N5CCCCC5)CC4)ccc23)cc1 (stereo not drawn) |

Each compound was assayed on Rattus norvegicus (assay: Anti-thrombotic activity in intragastrically dosed Sprague-Dawley rat venous thrombosis model assessed as reduction in thrombus weight administered once daily for 3 days measured 2 hrs post last dose).
Type: functional, organism-based

| SMILES | Activity |
| --- | --- |
| CC(C)(C)OC(=O)/N=C(\N)c1ccc(CC2NCCn3c2nc2cc(C4(C(=O)N5CCCC5)CCCC4)ccc23)cc1 (stereo not drawn) | Dose-dependent effect |
| Cc1nc(C)c(OC(=O)/N=C(\N)c2ccc(CC3NCCn4c3nc3cc(C5(C(=O)N6CCCC6)CCCC5)ccc34)cc2)nc1C (stereo not drawn) | Dose-dependent effect |
